Results on 21 molecules are retold here after patent US10160762B2, “6-alkyl dihydropyrazolopyrimidinone compounds as PDE2 inhibitors” (Merck Sharp & Dohme Corp., priority 2015, dated 2018).

Structures are written as SMILES. Where two headings read alike, the source gives them in different places.

The target in this assay is T1, human PDE2A1 (Homo sapiens, UniProt O00408).
T1 construct: GST; purchased BPS Bioscience (San Diego, Calif.) 60020; host or cells: insect cells
Briefly: IMAP FP PDE assay, human PDE2A1. In kind it is biochemical. The procedure, abridged:
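FP (IMAP) read after 60 min room-temperature reaction of insect-cell GST-human PDE2A1 with 50 nM FAM-cAMP plus 1000 nM cGMP (pH 7.2 Tris, Mg2+, DTT). Compounds titrated 3-fold over ten points. Apparent Ki derived assuming KM of 10,000 nM; enzyme at 20% substrate turnover.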

The mark [1] stands for this setting: Lab B, read-out: Human PDE2 Ki (nM) Lab B.
The mark [2] stands for this setting: Lab A, read-out: Human PDE2 Ki (nM) Lab A.

T1 sequence (O00408 1-920 isoform O00408-2): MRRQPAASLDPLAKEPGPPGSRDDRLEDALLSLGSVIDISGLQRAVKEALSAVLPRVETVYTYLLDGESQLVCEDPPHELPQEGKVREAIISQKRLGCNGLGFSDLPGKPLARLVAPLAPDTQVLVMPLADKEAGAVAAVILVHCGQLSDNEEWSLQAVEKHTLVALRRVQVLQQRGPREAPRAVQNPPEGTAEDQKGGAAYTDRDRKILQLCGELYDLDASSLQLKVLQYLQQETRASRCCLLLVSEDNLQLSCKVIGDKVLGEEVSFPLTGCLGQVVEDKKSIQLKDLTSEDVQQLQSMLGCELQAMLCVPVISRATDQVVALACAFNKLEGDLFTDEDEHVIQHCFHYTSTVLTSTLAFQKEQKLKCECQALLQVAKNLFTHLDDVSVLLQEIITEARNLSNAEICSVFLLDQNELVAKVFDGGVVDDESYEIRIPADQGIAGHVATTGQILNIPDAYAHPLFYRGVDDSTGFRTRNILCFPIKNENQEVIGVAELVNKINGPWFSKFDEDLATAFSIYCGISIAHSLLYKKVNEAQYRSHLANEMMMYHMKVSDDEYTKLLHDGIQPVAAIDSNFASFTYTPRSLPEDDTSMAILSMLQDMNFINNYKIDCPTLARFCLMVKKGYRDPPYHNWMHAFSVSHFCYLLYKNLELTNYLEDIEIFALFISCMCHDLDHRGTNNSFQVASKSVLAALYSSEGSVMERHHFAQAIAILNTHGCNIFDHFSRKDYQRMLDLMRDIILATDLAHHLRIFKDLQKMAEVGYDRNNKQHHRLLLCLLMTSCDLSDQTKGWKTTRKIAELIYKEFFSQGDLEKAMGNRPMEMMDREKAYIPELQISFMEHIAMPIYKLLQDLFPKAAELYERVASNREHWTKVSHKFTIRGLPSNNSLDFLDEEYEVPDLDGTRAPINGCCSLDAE

In the case of `Cc1nc2c(c(CO)nn2C(C)c2ccc(OC(F)(F)F)c(F)c2)c(=O)[nH]1` (single isomer, unassigned) [Example 10, (R)- or (S)-1-(1-(3-Fluoro-4-(trifluoromethoxy)phenyl)ethyl)-3-(hydroxymethyl)-6-methyl-1H-pyrazolo[3,4-d]pyrimidin-4(5H)-one], the Ki (commonly the equilibrium dissociation constant of an inhibitor or competing ligand from its target) under setting [1] came to 50 nM.

`Cc1nc2c(c(C(O)C(F)(F)F)nn2C(C)c2ccc(C(F)(F)F)cc2)c(=O)[nH]1` (stereo not drawn) [Example 327, 6-Methyl-3-(2,2,2-trifluoro-1-hydroxyethyl)-1-{1-[4-(trifluoromethyl)phenyl]ethyl}-1,5-dihydro-4H-pyrazolo[3,4-d]pyrimidin-4-one]: the Ki under setting [2] came out at 92 nM.

Take `Cc1nc2c(c(CF)nn2C(c2ccc(C(F)(F)F)cc2)C(C)C)c(=O)[nH]1` (single isomer, unassigned) [Example 212, (R)- or (S)-3-(Fluoromethyl)-6-methyl-1-(2-methyl-1-(4-(trifluoromethyl)phenyl)propyl)-1H-pyrazolo[3,4-d]pyrimidin-4(5H)-one]: the Ki under setting [1] was 43 nM.

As for `Cc1nn(C(C)c2ccc(C(F)(F)F)cc2)c2nc(-c3cnn(C)c3)[nH]c(=O)c12` (stereo not drawn) [Example 53, 3-Methyl-6-(1-methyl-1H-pyrazol-4-yl)-1-{1-[4-(trifluoromethyl)phenyl]ethyl}-1,5-dihydro-4H-pyrazolo[3,4-d]pyrimidin-4-one], under setting [2], the Ki was 17 nM.

On to `Cc1nc2c(c(CF)nn2C(c2ccc(C(F)(F)F)cc2)C2(C)CC2)c(=O)[nH]1` (single isomer, unassigned) [Example 209], for which the inhibition constant Ki under setting [1] amounted to 0.99 nM.

Take `Cc1nc2c(c(CF)nn2C(C)c2ccc(S(F)(F)(F)(F)F)cc2)c(=O)[nH]1` (single isomer, unassigned) [Example 200]: the Ki under setting [1] was found to be 2 nM.

In the case of `Cc1nc2c(c(CO)nn2C(C)(C)c2ccc(C(F)(F)F)cc2)c(=O)[nH]1` [Example 9, 3-(Hydroxymethyl)-6-methyl-1-{1-methyl-1-[4-(trifluoromethyl)phenyl]ethyl}-1,5-dihydro-4H-pyrazolo[3,4-d]pyrimidin-4-one], the inhibition constant Ki was found to be 27 nM under setting [2] and 60 nM under setting [1].

As for `Cc1nc2c(c(C)nn2C(C)c2ccc(C(F)(F)F)cc2)c(=O)[nH]1` (single isomer, unassigned) [Example 36], the Ki under setting [2] came out at 428 nM.

As to `Cc1nc2c(c(CO)nn2C(C)c2ccc(OC(F)(F)F)cc2)c(=O)[nH]1` (stereo not drawn) [Example 4], the Ki was 4.6 nM under setting [2] and 5.9 nM under setting [1].

As for `Cc1ccc(C(C)n2nc(CO)c3c(=O)[nH]c(C)nc32)cc1` (stereo not drawn) [Example 2, 3-(Hydroxymethyl)-6-methyl-1-(1-p-tolylethyl)-1H-pyrazolo[3,4-d]pyrimidin-4(5H)-one], the Ki turned out to be 18 nM under setting [2] and 28 nM under setting [1].

With `Cc1nc2c(c(C)nn2C(C)c2ccc(C(F)(F)F)cc2)c(=O)[nH]1` (single isomer, unassigned) [Example 37], the Ki under setting [2] is 23 nM.

For the molecule `Cc1nn(C(C)c2ccc(C(F)(F)F)cc2)c2nc(-c3cnc4ccccc4n3)[nH]c(=O)c12` (stereo not drawn) [Example 50, 3-Methyl-6-quinoxalin-2-yl-1-{1-[4-(trifluoromethyl)phenyl]ethyl}-1,5-dihydro-4H-pyrazolo[3,4-d]pyrimidin-4-one], the Ki under setting [2] was 47 nM.

Regarding `Cc1ccc(C(C)n2nc(CF)c3c(=O)[nH]c(C)nc32)cc1` (stereo not drawn) [Example 203, 3-(Fluoromethyl)-6-methyl-1-(1-p-tolylethyl)-1H-pyrazolo[3,4-d]pyrimidin-4(5H)-one], the Ki turned out to be 8.3 nM under setting [2] and 17 nM under setting [1].

As for `Cc1nc2c(c(CF)nn2C(C)c2ccc(OC(F)(F)F)cc2)c(=O)[nH]1` (single isomer, unassigned) [Example 207, (S)- or (R)-3-(Fluoromethyl)-6-methyl-1-(1-(4-(trifluoromethoxy)phenyl)ethyl)-1H-pyrazolo[3,4-d]pyrimidin-4(5H)-one], under setting [1], the inhibition constant (Ki) was 1.1 nM.

For the molecule `Cc1nc2c(c(CO)nn2C(C)c2ccc(C(F)(F)F)cc2)c(=O)[nH]1` (single isomer, unassigned) [Example 27, (S)- or (R)-3-(Hydroxymethyl)-6-methyl-1-{1-[4-(trifluoromethyl)phenyl]ethyl]-1,5-dihydro-4H-pyrazolo[3,4-d]pyrimidin-4-one], the Ki is, setting by setting: under setting [2], 1.4 nM; under setting [1], 3.4 nM.

For the molecule `Cc1nn(C(C)c2ccc(C(F)(F)F)cc2)c2nc(-c3ccccn3)[nH]c(=O)c12` (stereo not drawn) [Example 52, 3-Methyl-6-pyridin-2-yl-1-{1-[4-(trifluoromethyl)phenyl]ethyl}-1,5-dihydro-4H-pyrazolo[3,4-d]pyrimidin-4-one], under setting [2], the Ki came out at 18 nM.

Consider `COc1cccc(-c2nc3c(c(C)nn3C(C)c3ccc(C(F)(F)F)cc3)c(=O)[nH]2)c1` (stereo not drawn) [Example 47, 6-(3-Methoxyphenyl)-3-methyl-1-{1-[4-(trifluoromethyl)phenyl]ethyl}-1,5-dihydro-4H-pyrazolo[3,4-d]pyrimidin-4-one], for which the inhibition constant (Ki) under setting [2] was found to be 17 nM.

Consider `Cc1nc2c(c(CF)nn2C(C)c2ccc(C(F)(F)F)cc2)c(=O)[nH]1` (stereo not drawn) [Example 204, 3-(Fluoromethyl)-6-methyl-1-{1-[4-(trifluoromethyl)phenyl]ethyl}-1,5-dihydro-4H-pyrazolo[3,4-d]pyrimidin-4-one], for which the inhibition constant (Ki) under setting [2] came to 2.7 nM.

As to `Cc1nn(C(C)c2ccc(C(F)(F)F)cc2)c2nc(C(C)C)[nH]c(=O)c12` (stereo not drawn) [Example 43, 3-Methyl-6-(1-methylethyl)-1-{1-[4-(trifluoromethyl)phenyl]ethyl}-1,5-dihydro-4H-pyrazolo[3,4-d]pyrimidin-4-one], under setting [2], the Ki was 132 nM.

As to `COc1ccc(Cc2nc3c(c(C(F)F)nn3C(C)c3ccc(C(F)(F)F)cc3)c(=O)[nH]2)cc1OC` (single isomer, unassigned) [Example 196], under setting [1], the inhibition constant (Ki) was found to be 61 nM.

Consider `Cc1nc2c(c(C(C)O)nn2C(C)c2ccc(C(F)(F)F)cc2)c(=O)[nH]1` (stereo not drawn) [Example 328, 3-(1-Hydroxyethyl)-6-methyl-1-{1-[4-(trifluoromethyl)phenyl]ethyl}-1,5-dihydro-4H-pyrazolo[3,4-d]pyrimidin-4-one], for which the Ki is roughly 11 nM under setting [2] and 31 nM under setting [1].
